pEC50: −log10 of the molar value.

The target in this experiment is T1, NL20 human bronchial epithelial cells expressing human Z-AAT (Homo sapiens, UniProt P01009, E366K).
T1 construct: expressed in transfected cells; host or cells: NL20 human bronchial epithelial cells (NL20-SI line, doxycycline added)
T1 sequence (P01009 25-418 E366K): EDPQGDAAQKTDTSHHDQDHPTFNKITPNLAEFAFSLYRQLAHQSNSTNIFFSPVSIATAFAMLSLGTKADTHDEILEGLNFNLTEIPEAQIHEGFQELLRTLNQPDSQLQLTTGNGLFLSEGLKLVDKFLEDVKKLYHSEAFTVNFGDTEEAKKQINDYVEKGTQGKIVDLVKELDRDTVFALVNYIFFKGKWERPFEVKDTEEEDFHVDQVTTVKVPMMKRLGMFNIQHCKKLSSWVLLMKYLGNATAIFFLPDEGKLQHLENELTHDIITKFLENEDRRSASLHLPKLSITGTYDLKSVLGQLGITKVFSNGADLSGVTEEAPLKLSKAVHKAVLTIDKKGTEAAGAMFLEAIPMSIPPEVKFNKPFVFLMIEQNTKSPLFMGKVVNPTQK
Put plainly: AAT Function Assay (MSD Assay NL20-SI Cell Line). The settings on record: functionally active AAT (AAT-hNE complex) in supernatant of NL20 cells expressing human Z-AAT; read-out: NL20 Func. (EC50). The experiment is classed as cell-based. As for the experimental part:
A. AAT Function Assay (MSD Assay NL20-SI Cell Line)
Alpha-1 antitrypsin (AAT) is a SERPIN (serine protease inhibitor) that inactivates enzymes by binding to them covalently. This assay measured the amount of functionally active AAT in a sample in the presence of the disclosed compounds 1-215 by determining the ability of AAT to form an irreversible complex with human neutrophil Elastase (hNE). In practice, the sample (cell supernatant, blood sample, or other) was incubated with excess hNE to allow AAT-Elastase complex to be formed with all functional AAT in the sample. This complex was then captured to a microplate coated with an anti-AAT antibody. The complex captured to the plate was detected with a labeled anti-Elastase antibody and quantitated using a set of AAT standards spanning the concentration range present in the sample. Meso Scale Discovery (MSD) plate reader, Sulfo-tag labeling, and microplates were used to provide high sensitivity and wide dynamic range.
• 1. Harvest NL20 human bronchial epithelial cells expressing human Z-AAT in OptiMEM™ containing Pen/Strep (P/S) • 2. Seed at 16,000 cells/well in 30 μL (384 well plate) • 3. Centrifuge plates briefly up to speed (1200 rpm) and place into 37° C. incubator overnight Day 2: Compound Addition and Coating Plates with Capture Antibody Compound Addition: • 1. Dispense 40 μL of OptiMEM™ (P/S) with doxycycline (1:1000 stock=0.1 μM final) to each well of the compound plate using a multidrop Combi in hood • 2. Remove cell plate from incubator, flip/blot and take immediately to Bravo to transfer compounds • 3. Return plates to incubator overnight Coat MSD Plates • 1. Dilute capture antibody (Polyclonal Goat anti-AAT) to 5 μg/mL (1:200) in PBS (no BSA). • 2. Dispense 25 μL of diluted capture antibody into all wells of MSD 384-well High Bind plate using the Multidrop equipped with a standard cassette. • 3. Incubate overnight at 4° C. Prepare Blocker A (BSA) Solutions • 1. Prepare solution of 5% MSD Blocker A (BSA) following the manufacturer's instructions. • 2. Further dilute the 5% MSD Blocker A in PBS to 1% (Blocker A) as needed. Day 3: Run MSD Assay
Block Plates • 1. Wash plate 1× with 50 μL Wash buffer (PBS+0.5% Tween 20), and adds 35 μL 5% Block A buffer to block non-specific binding on washer dispenser • 2. Rotate plates on shaker for 1 hour at 600 rpm
Prepare M-AAT Standards • 1. Dilute M-AAT stock to 1.6 μg/mL in 1% BSA Blocker A (Stock in −70° C.); then prepare 12×1:2 serial dilutions in 1% Blocker A • 2. The top starting final concentration on MSD plate is 320 ng/mL. These dilutions correspond to a final concentration of 320, 160, 80, 40, 20, 10, 5, 2.5, 1.25, 0.625, 0.312, 0.156 ng/mL.
Dilution Plate • 1. Add 80 μL of 1% Assay buffer to all wells except columns 1/24 (standards) with Multidrop Combi • 2. Add diluted standards to columns 1 and 24 • 3. Centrifuge dilution plates 1200 rpm briefly
Cell Plate • 1. Aspirate columns which will have the standards from the cell plates in the hood using 16-pin aspirator
Prepare Human Neutrophil Elastase (hNE) • 1. Prepare 1 μg/mL Human Neutrophil Elastase by diluting in 1% Blocker A. • a. Small 100 μg vial—add 1 mL PBS (100 μg/mL) • i. This can then be diluted 1:100 in 1% Assay Buffer for a final 1 μg/mL concentration
MSD—Add hNE (20 μL/well) • 1. After the MSD plate has blocked for at least 1 hour, wash plate 1× with 50 μL Wash buffer (PBS+0.5% Tween 20) and then add 20 μL hNE to each well
Bravo—Cell Plate—Dilution Plate—MSD Plate
Using the Bravo aspirate 10 μL from the cell plate, transfer to the dilution plate (9-fold dilution)
• 1. Mix 25 μL 3×, then aspirate 5 μL, transfer to MSD plate (5-fold dilution) • 2. Mix 10 μL 3×. Total dilution is 45 fold. • 3. Shake plates at 600 rpm for 1.5 hours
Add Functional detection hNE antibody • 1. Wash plate 1× with wash buffer • 2. […]
What is called pEC50 is −log10 of the EC50, conventionally taken in molar units. Turning to `Cc1cc(-n2c(C(C)C)c(C3CC(C(=O)O)C3)c3cc4[nH]ncc4cc32)ccc1F` (mixture of isomers) [Compound 18], the pEC50 was more than 5.94. For `Cc1cc(-n2c(C(C)C)c(C3CC(CC(=O)O)C3)c3cc4[nH]ncc4cc32)ccc1F` (mixture of isomers) [Compound 22], the pEC50 is more than 5.94.

Consider `Cc1cc(-n2c(C(C)C)c(C3CC(C)(C(=O)O)C3)c3cc4[nH]nc(C)c4cc32)ccc1F` (mixture of isomers) [Compound 55, 3-[5-(4-fluoro-3-methyl-phenyl)-6-isopropyl-3-methyl-1H-pyrrolo[2,3-f]indazol-7-yl]-1-methyl-cyclobutanecarboxylic Acid], for which the pEC50 was more than 5.94. In the case of `O=C(O)C1CC(Cc2c(C3CCOCC3)n(-c3ccc(F)c(Cl)c3)c3cc4cn[nH]c4cc23)C1` (mixture of isomers) [Compound 79] it was 5.52 to 5.94; in that of `O=C(O)C1CCC(Cc2c(C3CCOCC3)n(-c3ccc(F)c(Cl)c3)c3cc4cn[nH]c4cc23)CC1` (mixture of isomers) [Compound 83], 5.52 to 5.94; in that of `O=C(O)CC1CC(c2c(C3CCOCC3)n(-c3ccc(F)c(Cl)c3)c3cc4cn[nH]c4cc23)C1` (mixture of isomers) [Compound 85], 5.52 to 5.94. As for `Cc1cc(-n2c(C3CCOCC3)c(C3CC(CC(=O)O)C3)c3cc4[nH]ncc4cc32)ccc1F` (mixture of isomers) [Compound 93], the pEC50 was 5.52 to 5.94. The figure for `Cc1cc(-n2c(C3CCOCC3)c(CC3CC(C(=O)O)C3)c3cc4[nH]ncc4cc32)ccc1F` (mixture of isomers) [Compound 96] is more than 5.94; for `O=C(O)C1CC2(C1)CC(c1c(C3C[C@H]4CC[C@@H](C3)O4)n(-c3ccc(F)cc3)c3cc4cn[nH]c4cc13)C2` (mixture of isomers) [Compound 122, 6-[5-(4-fluorophenyl)-6-(8-oxabicyclo[3.2.1]octan-3-yl)-1H-pyrrolo[2,3-f]indazol-7-yl]spiro[3.3]heptane-2-carboxylic Acid] it is 5.52 to 5.94. In the case of `COCC(C)(C)c1c(C2CC(C)(C(=O)O)C2)c2cc3[nH]ncc3cc2n1-c1ccc(F)cc1` (mixture of isomers) [Compound 176] it was more than 5.94. In the case of `CCOC(=O)[C@@H]1C[C@@H]1c1c(C(C)C)n(-c2ccc(F)c(C)c2)c2cc3cn[nH]c3cc12` (racemic) [Compound 15, ethyl (1R,2S)-2-[5-(4-fluoro-3-methyl-phenyl)-6-isopropyl-1H-pyrrolo[2,3-f]indazol-7-yl]cyclopropanecarboxylate] it was less than 5.52; in that of `Cc1cc(-n2c(C(C)C)c(CC(C)C(=O)O)c3cc4[nH]ncc4cc32)ccc1F` (racemic) [Compound 19], more than 5.94; in that of `Cc1cc(-n2c(C(C)C)c(C3CC4(CC(C(=O)O)C4)C3)c3cc4[nH]ncc4cc32)ccc1F` (racemic) [Compound 24], more than 5.94. `CC(C)c1c(C2CC3(CC(C(=O)O)C3)C2)c2cc3[nH]ncc3cc2n1-c1ccc(F)cc1` (racemic) [Compound 34, 6-[5-(4-fluorophenyl)-6-isopropyl-1H-pyrrolo[2,3-f]indazol-7-yl]spiro[3.3]heptane-2-carboxylic acid]: the pEC50 was more than 5.94. The figure for `Cc1cc(-n2c(C(C)C)c(C3CC4(CC(C(=O)O)C4)C3)c3cc4[nH]nc(C)c4cc32)ccc1F` (racemic) [Compound 56, 6-[5-(4-fluoro-3-methyl-phenyl)-6-isopropyl-3-methyl-1H-pyrrolo[2,3-f]indazol-7-yl]spiro[3.3]heptane-2-carboxylic acid] is 5.52 to 5.94; for `Cc1cc(-n2c(C(C)C)c(C3CC4(CC(C(=O)O)C4)C3)c3c(F)c4[nH]nc(C)c4cc32)ccc1F` (racemic) [Compound 59, 6-[8-fluoro-5-(4-fluoro-3-methyl-phenyl)-6-isopropyl-3-methyl-1H-pyrrolo[2,3-f]indazol-7-yl]spiro[3.3]heptane-2-carboxylic Acid] it is more than 5.94. In the case of `O=C(O)C1CC2(C1)CC(c1c(C3CCOCC3)n(-c3ccc(F)c(Cl)c3)c3cc4cn[nH]c4cc13)C2` (racemic) [Compound 76] it was more than 5.94.

With `COC(=O)C1CC2(C1)CC(c1c(C3CCOCC3)n(-c3ccc(F)c(C)c3)c3cc4cn[nH]c4cc13)C2` (racemic) [Compound 89], the negative logarithm of the EC50 (pEC50) was less than 5.52.

Turning to `Cc1cc(-n2c(C3CCOCC3)c(C3CC4(CC(C(=O)O)C4)C3)c3cc4[nH]ncc4cc32)ccc1F` (racemic) [Compound 90], the pEC50 was more than 5.94. In the case of `Cc1cc(-n2c(C3CCOCC3)c(CC(C)C(=O)O)c3cc4[nH]ncc4cc32)ccc1F` (racemic) [Compound 105] it was 5.52 to 5.94; in that of `O=C(O)C1CC2(C1)CC(c1c(C3CCOCC3)n(-c3ccc(F)cc3)c3cc4cn[nH]c4cc13)C2` (racemic) [Compound 108, 6-(5-(4-fluorophenyl)-6-(tetrahydro-2H-pyran-4-yl)-1,5-dihydropyrrolo[2,3-f]indazol-7-yl)spiro[3.3]heptane-2-carboxylic Acid], 5.52 to 5.94; in that of `O=C(O)C1CC(Cc2c(C3CCOCC3)n(-c3ccc(F)cc3)c3cc4cn[nH]c4cc23)C1` (racemic) [Compound 116], less than 5.52. In the case of `O=C1CCCC(c2c(C3CCOCC3)n(-c3ccc(F)cc3)c3cc4cn[nH]c4cc23)C1` (racemic) [Compound 121, 3-[5-(4-fluorophenyl)-6-tetrahydropyran-4-yl-1H-pyrrolo[2,3-f]indazol-7-yl]cyclohexanone] it was 5.52 to 5.94; in that of `Cc1cc(-n2c(C3CCOCC3)c(C3CC4(CC(C(=O)O)C4)C3)c3cc4[nH]nc(C)c4cc32)ccc1F` (racemic) [Compound 126, 6-[5-(4-fluoro-3-methyl-phenyl)-3-methyl-6-tetrahydropyran-4-yl-1H-pyrrolo[2,3-f]indazol-7-yl]spiro[3.3]heptane-2-carboxylic acid], 5.52 to 5.94; in that of `Cc1n[nH]c2cc3c(C4CC5(CC(C(=O)O)C5)C4)c(C4CCOCC4)n(-c4ccc(F)c(F)c4)c3cc12` (racemic) [Compound 129, 6-[5-(3,4-difluorophenyl)-3-methyl-6-tetrahydropyran-4-yl-1H-pyrrolo[2,3-f]indazol-7-yl]spiro[3.3]heptane-2-carboxylic Acid], less than 5.52. In the case of `O=C(O)C1CC2(C1)CC(c1c(C3CCOCC3)n(-c3ccc(F)cc3)c3cc4cn[nH]c4c(F)c13)C2` (racemic) [Compound 135, 6-[8-fluoro-5-(4-fluorophenyl)-6-tetrahydropyran-4-yl-1H-pyrrolo[2,3-f]indazol-7-yl]spiro[3.3]heptane-2-carboxylic acid] it was more than 5.94; in that of `O=C(O)C1CC2(C1)CC(c1c(C3CCOC3)n(-c3ccc(F)cc3)c3cc4cn[nH]c4cc13)C2` (racemic) [Compound 140, 6-[5-(4-fluorophenyl)-6-tetrahydrofuran-3-yl-1H-pyrrolo[2,3-f]indazol-7-yl]spiro[3.3]heptane-2-carboxylic acid], less than 5.52. `Cc1cc(-n2c(C(C)C)c(C3CC3C(=O)O)c3cc4[nH]ncc4cc32)ccc1F` (single isomer, unassigned) [Compound 13, 2-[5-(4-fluoro-3-methyl-phenyl)-6-isopropyl-1H-pyrrolo[2,3-f]indazol-7-yl]cyclopropanecarboxylic acid]: the pEC50 is more than 5.94.

The values above are taken from patent US11623924B2, “Modulators of alpha-1 antitrypsin” (Vertex Pharmaceuticals Incorporated, priority 2018, dated 2023).
